{"source": "paper doi:10.1101/2025.11.20.689572v1", "about": "(biorxiv, 2025)", "key": {"HTR2C [1]": {"molecular_target": "T1, HTR2C (Homo sapiens, UniProt P28335)", "T1 sequence (P28335 1-458)": "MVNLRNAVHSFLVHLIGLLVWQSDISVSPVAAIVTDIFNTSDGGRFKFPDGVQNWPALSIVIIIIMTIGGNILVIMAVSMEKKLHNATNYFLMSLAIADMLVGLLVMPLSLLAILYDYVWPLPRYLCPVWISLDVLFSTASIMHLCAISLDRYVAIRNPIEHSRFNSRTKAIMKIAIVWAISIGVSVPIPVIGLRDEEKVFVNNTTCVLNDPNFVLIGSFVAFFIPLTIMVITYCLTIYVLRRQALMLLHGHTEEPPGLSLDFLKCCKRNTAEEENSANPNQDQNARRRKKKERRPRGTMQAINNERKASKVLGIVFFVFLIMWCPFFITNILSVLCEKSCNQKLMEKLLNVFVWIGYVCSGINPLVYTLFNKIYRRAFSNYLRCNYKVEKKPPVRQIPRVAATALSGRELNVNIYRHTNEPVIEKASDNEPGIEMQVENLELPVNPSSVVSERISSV", "test": "cell-based", "parameters": "species or system HEK293; Fluo-4 Direct calcium mobilization on FLIPR-Tetra", "details": "Assay=Calcium; agonist mode"}, "M4": {"molecular_target": "T2, M4 (Homo sapiens, UniProt P08173)", "T2 construct": "gene CHRM4; full-length receptor; HEK293 with TRUPATH sensors (function)", "T2 sequence (P08173 1-479)": "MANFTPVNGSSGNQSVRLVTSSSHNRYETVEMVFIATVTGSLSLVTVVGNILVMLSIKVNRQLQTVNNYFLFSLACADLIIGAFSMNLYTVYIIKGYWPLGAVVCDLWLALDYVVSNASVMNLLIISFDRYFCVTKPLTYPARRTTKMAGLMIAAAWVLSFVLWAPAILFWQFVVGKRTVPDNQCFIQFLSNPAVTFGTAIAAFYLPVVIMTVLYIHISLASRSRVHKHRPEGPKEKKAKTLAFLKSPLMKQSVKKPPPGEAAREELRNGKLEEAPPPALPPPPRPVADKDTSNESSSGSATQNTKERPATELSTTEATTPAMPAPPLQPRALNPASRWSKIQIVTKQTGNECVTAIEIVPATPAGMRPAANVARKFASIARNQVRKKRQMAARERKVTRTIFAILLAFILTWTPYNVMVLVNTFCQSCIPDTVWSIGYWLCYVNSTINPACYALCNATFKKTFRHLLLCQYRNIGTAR", "test": "competitive radioligand binding, HEK293 membranes"}, "HTR2A": {"molecular_target": "HTR2A (Homo sapiens, UniProt P28223)", "sequence (P28223 whole entry)": "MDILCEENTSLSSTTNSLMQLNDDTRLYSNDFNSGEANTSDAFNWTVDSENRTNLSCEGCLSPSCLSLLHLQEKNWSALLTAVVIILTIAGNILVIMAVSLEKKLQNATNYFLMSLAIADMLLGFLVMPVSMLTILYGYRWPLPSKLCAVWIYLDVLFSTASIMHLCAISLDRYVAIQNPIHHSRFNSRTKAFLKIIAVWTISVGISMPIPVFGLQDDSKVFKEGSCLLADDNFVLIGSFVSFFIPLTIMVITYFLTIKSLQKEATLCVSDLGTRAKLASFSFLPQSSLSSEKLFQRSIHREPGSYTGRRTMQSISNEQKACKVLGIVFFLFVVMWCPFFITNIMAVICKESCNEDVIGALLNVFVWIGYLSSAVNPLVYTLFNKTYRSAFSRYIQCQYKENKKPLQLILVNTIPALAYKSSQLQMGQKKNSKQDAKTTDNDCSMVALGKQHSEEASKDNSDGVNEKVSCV", "test": "cell-based", "parameters": "Fluo-4 Direct calcium mobilization on FLIPR-Tetra", "details": "HEK293, read-out: N-Desmethyl Xanomeline; Assay=Calcium; agonist mode, % of control agonist"}, "HTR2C [2]": {"molecular_target": "T1, HTR2C", "test": "cell-based", "parameters": "species or system HEK293; TRUPATH BRET2 G-protein dissociation; antagonist mode against agonist EC80", "details": "HEK293, read-out: N-Desmethyl Xanomeline, Assay=Gq; agonist mode, % of control agonist"}, "CHRM1": {"molecular_target": "T3, CHRM1 (Homo sapiens, UniProt P11229)", "T3 sequence (P11229 1-460)": "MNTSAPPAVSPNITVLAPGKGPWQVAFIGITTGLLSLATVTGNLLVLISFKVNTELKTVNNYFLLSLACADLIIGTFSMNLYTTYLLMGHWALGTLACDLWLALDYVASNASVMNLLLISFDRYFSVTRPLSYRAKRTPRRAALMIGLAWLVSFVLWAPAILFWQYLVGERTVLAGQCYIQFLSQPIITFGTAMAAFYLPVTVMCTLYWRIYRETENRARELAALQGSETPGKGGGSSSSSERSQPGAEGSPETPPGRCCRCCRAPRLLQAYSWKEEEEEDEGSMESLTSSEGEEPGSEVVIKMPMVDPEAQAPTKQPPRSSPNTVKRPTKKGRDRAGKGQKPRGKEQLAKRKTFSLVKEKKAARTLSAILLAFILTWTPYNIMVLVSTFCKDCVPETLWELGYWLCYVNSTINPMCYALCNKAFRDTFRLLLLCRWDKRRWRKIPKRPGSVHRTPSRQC", "test": "cell-based", "parameters": "species or system HEK293; TRUPATH BRET2 G-protein dissociation; antagonist mode against agonist EC80", "details": "HEK293, read-out: N-Desmethyl Xanomeline, Assay=Gq; agonist mode, % of control agonist"}, "H4": {"molecular_target": "T4, H4 (Homo sapiens, UniProt Q9H3N8)", "T4 construct": "gene HRH4; full-length receptor; HEK293 cell membranes", "T4 sequence (Q9H3N8 whole entry)": "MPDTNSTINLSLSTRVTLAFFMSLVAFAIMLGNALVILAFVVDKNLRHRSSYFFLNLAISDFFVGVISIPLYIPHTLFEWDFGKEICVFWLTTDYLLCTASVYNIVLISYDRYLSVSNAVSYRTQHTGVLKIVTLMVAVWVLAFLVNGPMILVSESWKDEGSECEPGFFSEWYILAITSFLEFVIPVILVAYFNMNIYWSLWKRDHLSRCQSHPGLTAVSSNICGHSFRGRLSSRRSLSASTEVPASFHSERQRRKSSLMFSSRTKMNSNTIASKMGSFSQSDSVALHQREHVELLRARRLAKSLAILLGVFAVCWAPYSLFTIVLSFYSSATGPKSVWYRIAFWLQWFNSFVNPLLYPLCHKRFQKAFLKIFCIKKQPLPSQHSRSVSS", "test": "competitive radioligand binding, HEK293 membranes", "description": "competitive radioligand binding, HEK293 membranes on H4"}, "5-HT5A": {"molecular_target": "T5, 5-HT5A (Homo sapiens, UniProt P47898)", "T5 construct": "gene HTR5A; full-length receptor; HEK293 cell membranes", "T5 sequence (P47898 whole entry)": "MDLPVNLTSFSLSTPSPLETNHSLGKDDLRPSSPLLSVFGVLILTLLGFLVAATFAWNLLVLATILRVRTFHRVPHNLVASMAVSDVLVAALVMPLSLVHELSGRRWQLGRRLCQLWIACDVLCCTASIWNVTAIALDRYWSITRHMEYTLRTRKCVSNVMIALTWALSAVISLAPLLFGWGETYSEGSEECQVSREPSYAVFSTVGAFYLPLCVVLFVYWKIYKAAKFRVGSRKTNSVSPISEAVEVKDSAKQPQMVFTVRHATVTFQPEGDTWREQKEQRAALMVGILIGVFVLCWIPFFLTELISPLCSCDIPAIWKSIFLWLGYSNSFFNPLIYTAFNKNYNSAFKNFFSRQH", "test": "competitive radioligand binding, HEK293 membranes", "description": "competitive radioligand binding, HEK293 membranes on 5-HT5A"}, "β2": {"molecular_target": "β2 (Homo sapiens, UniProt P07550)", "sequence (P07550 whole entry)": "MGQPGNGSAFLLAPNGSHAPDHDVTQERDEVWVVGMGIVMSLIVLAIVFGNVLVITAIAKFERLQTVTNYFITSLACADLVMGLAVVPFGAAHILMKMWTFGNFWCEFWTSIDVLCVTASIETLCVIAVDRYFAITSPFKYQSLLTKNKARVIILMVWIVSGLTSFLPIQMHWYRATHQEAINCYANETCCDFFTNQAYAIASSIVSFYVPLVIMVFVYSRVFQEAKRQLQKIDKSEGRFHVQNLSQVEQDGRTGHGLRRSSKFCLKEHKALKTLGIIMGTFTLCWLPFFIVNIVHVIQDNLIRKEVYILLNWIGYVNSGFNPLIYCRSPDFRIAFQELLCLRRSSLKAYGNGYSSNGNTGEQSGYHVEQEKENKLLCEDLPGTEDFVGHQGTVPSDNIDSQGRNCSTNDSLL", "test": "biochemical", "parameters": "gene ADRB2; species or system HEK293; PDSP competitive radioligand binding, membranes of transfected HEK293 cells, filtration, Ki by Cheng-Prusoff", "experimental": "Competitive radioligand binding assays were performed at the NIMH Psychoactive Drug Screening Program (PDSP) using membranes from transiently transfected HEK293 cells in 96-well format as described. Complete, target-specific protocols are available at the PDSP website (https://pdsp.unc.edu/pdspweb/?site=assays). Primary screenings were run at a single test concentration (10 µM) in quadruplicate. […] Secondary assays were conducted in triplicate using 12-point serial dilutions (0, 0.1, 0.3, 1, 3, 10, 30, 100, 300 nM; 1, 3, 10 µM). Assays were performed in a final volume of 125 µL per well in binding buffer, as detailed in the NIMH PDSP protocols (e.g., standard binding buffer: 50 mM Tris-HCl, pH 7.4, 10 mM MgCl2, 0.1 mM EDTA). Radioligand concentrations were chosen near the target-specific Kd. […] After 90 min incubation at room temperature, reactions were terminated by vacuum filtration onto 0.3% polyethyleneimine-pretreated UniFilter-96 GF/C Microplates using a FilterMate harvester, washed three times with ice-cold buffer (50 mM Tris HCl, pH 7.4), dried, treated with MicroScint-O [compound left out] scintillation cocktails, and counted on a MicroBeta counter. Equilibrium inhibition constants (Ki) were calculated from fitted IC50 values using the Cheng–Prusoff equation [14] with the assay-specific radioligand concentration and Kd. […] ND=not determined."}}, "data": [{"smiles": "CCCCCCOc1nsnc1C1=CCCNC1", "note": "[N-desmethylxanomeline]", "values": [{"measurement": "EC50", "setting": "HTR2C [1]", "result": 1090, "unit": "nM"}, {"measurement": "Ki", "setting": "M4", "result": 117, "unit": "nM"}, {"measurement": "Emax", "setting": "HTR2A", "result": 63.4, "unit": "%"}, {"measurement": "Emax", "setting": "HTR2C [2]", "result": 106, "unit": "%"}, {"measurement": "Emax", "setting": "CHRM1", "result": 95.9, "unit": "%"}, {"measurement": "Ki", "setting": "H4", "result": 363, "unit": "nM"}]}, {"smiles": "CCCCCCOc1nsnc1C1=CCCN(C)C1", "note": "[Xanomeline]", "values": [{"measurement": "Ki", "setting": "5-HT5A", "result": 794, "unit": "nM"}, {"measurement": "Ki", "setting": "β2", "result": "> 10000", "unit": "nM"}]}]}
